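Following 48 hours of exposure in 96-well plates, responses at five concentrations were used to interpolate endpoints linearly. GI50 is the concentration that inhibits growth by half. TGI: total growth inhibition.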

Some test systems named below: K-562 leukemia; HT29 colon; RPMI-8226 leukemia; HCT-15 colon; HL-60(TB) leukemia; CAKI-1 renal; OVCAR-3 ovarian; NCI-H23 lung; HOP-92 NSCLC.
What all share (assay): NCI anticancer screen, dose series, 48 h

Turning to `C[C@@H]1C=C2C(=O)O[C@@H]3CC[C@H](C1)[C@]23O`, the GI50 was 2.7 µM in the assay with K-562 leukemia; 3.46 µM with HT29 colon; 2.93 µM in the assay on RPMI-8226 leukemia; 3 µM in the assay with HCT-15 colon; 3.44 µM in the assay with OVCAR-3 ovarian; 4.33 µM with NCI-H23 lung. The TGI with K-562 leukemia was found to be 34.6 µM; with HT29 colon, 13.4 µM; in the assay with RPMI-8226 leukemia it was 10.7 µM; in the assay with HCT-15 colon it was 18.1 µM; in the assay on HL-60(TB) leukemia, 5.71 µM; with CAKI-1 renal it was 12.7 µM. The TGI was 11.1 µM in the assay with OVCAR-3 ovarian and 23 µM with NCI-H23 lung.
For the molecule `C[C@H]1[C@H](C)CC[C@]2(C(=O)O)CC[C@]3(C)C(=CC[C@@H]4[C@@]5(C)C/C(=C/c6ccco6)C(=O)C(C)(C)[C@@H]5CC[C@]43C)[C@H]12`, the GI50 in the assay with K-562 leukemia is 3.26 µM; in the assay with HT29 colon, 5.3 µM; with RPMI-8226 leukemia, 2.83 µM; in the assay with HCT-15 colon it was 2.95 µM; in the assay on HL-60(TB) leukemia, 2.44 µM; in the assay on CAKI-1 renal it was 4.55 µM. For the same molecule, the GI50 in the assay with OVCAR-3 ovarian was 3.44 µM; with NCI-H23 lung it was 3.85 µM; in the assay on HOP-92 NSCLC it was 2.54 µM. In addition, the TGI with K-562 leukemia was greater than 100 µM; with HT29 colon it was 34.6 µM; in the assay with RPMI-8226 leukemia, 15.7 µM; in the assay with HCT-15 colon, 12.1 µM; with HL-60(TB) leukemia, 7.04 µM; in the assay on CAKI-1 renal it was 18 µM. In addition, the TGI with OVCAR-3 ovarian was found to be 11.9 µM; with NCI-H23 lung, 16.3 µM; with HOP-92 NSCLC, 12.5 µM.
Take `C1=Cc2nc1c(-c1ccncc1)c1ccc([n-]1)c(-c1ccncc1)c1nc(c(-c3ccncc3)c3ccc([n-]3)c2-c2ccncc2)C=C1.[Zn+2]`: the TGI in the assay with K-562 leukemia, in the assay on HT29 colon, with RPMI-8226 leukemia, in the assay with HCT-15 colon, with HL-60(TB) leukemia and in the assay on CAKI-1 renal was greater than 100 µM throughout. Also, the TGI in the assay on OVCAR-3 ovarian, with NCI-H23 lung and with HOP-92 NSCLC was greater than 100 µM each time.
As for `NCCC(O)(P(=O)(O)O)P(=O)(O)O`, the GI50 in the assay on K-562 leukemia, with HT29 colon, in the assay on RPMI-8226 leukemia, with HCT-15 colon, in the assay on HL-60(TB) leukemia and with OVCAR-3 ovarian was greater than 100 µM in each case. Besides, the GI50 in the assay with NCI-H23 lung and in the assay on HOP-92 NSCLC was greater than 100 µM in each case. For the same molecule, the TGI in the assay on K-562 leukemia, in the assay with HT29 colon, with RPMI-8226 leukemia, with HCT-15 colon, with HL-60(TB) leukemia and with OVCAR-3 ovarian was greater than 100 µM in each case. In addition, the TGI in the assay with NCI-H23 lung and in the assay on HOP-92 NSCLC was greater than 100 µM throughout.
As for `CCn1cnc2c(Nc3cccc(Cl)c3)nc(N[C@@H]3CCCC[C@@H]3N)nc21`, the GI50 was 1.51 µM in the assay on K-562 leukemia; 1.91 µM with HT29 colon; 1.8 µM with RPMI-8226 leukemia; 2.08 µM in the assay with HCT-15 colon; 1.78 µM in the assay on HL-60(TB) leukemia; 2.6 µM in the assay with CAKI-1 renal. Further, the GI50 is 1.18 µM in the assay with OVCAR-3 ovarian, 1.38 µM in the assay with NCI-H23 lung and 1.04 µM in the assay with HOP-92 NSCLC. In addition, the TGI in the assay on K-562 leukemia was found to be 4.18 µM; in the assay with HT29 colon, 5.87 µM; with RPMI-8226 leukemia it was 4.39 µM; in the assay on HCT-15 colon, 8.75 µM; in the assay with HL-60(TB) leukemia, 3.93 µM; with CAKI-1 renal it was 10.1 µM. Further, the TGI with OVCAR-3 ovarian came out at 4.4 µM; in the assay on NCI-H23 lung, 3.59 µM; in the assay with HOP-92 NSCLC, 3.57 µM.
For the molecule `Cn1cc(C2=C(c3cn(CCN)c4ccccc34)C(=O)NC2=O)c2ccccc21`, the GI50 in the assay with K-562 leukemia is 8.4 µM; in the assay on HT29 colon, 4.2 µM; with RPMI-8226 leukemia, 6.29 µM; in the assay with HCT-15 colon, 6.79 µM; in the assay with HL-60(TB) leukemia it was 6.55 µM; with CAKI-1 renal, 4.18 µM. Further, the values for the GI50 with OVCAR-3 ovarian and with NCI-H23 lung were 7.47 µM and 5.15 µM, respectively. In addition, the TGI in the assay with K-562 leukemia was greater than 25 µM; in the assay on HT29 colon, 15.7 µM; in the assay with RPMI-8226 leukemia, 15.5 µM; in the assay with HCT-15 colon, greater than 25 µM; with HL-60(TB) leukemia, 14.9 µM; with CAKI-1 renal, 24.5 µM. For the same molecule, the TGI is greater than 23.9 µM with OVCAR-3 ovarian and 15.1 µM in the assay with NCI-H23 lung.
Turning to `C[C@@]12CCC(=O)C=C1CC[C@H]1C2=CC[C@]2(C)C1CC[C@@]2(C)O` (some centres not stated), the TGI in the assay with K-562 leukemia is greater than 100 µM; with HT29 colon, greater than 100 µM; in the assay with RPMI-8226 leukemia it was greater than 100 µM; with HCT-15 colon, greater than 100 µM; in the assay on HL-60(TB) leukemia, 77.9 µM; in the assay on CAKI-1 renal it was greater than 100 µM. Moreover, the TGI in the assay with OVCAR-3 ovarian, in the assay on NCI-H23 lung and in the assay on HOP-92 NSCLC was greater than 100 µM in each case.
On to `CC(C)(C)C(=O)C1CC(=O)c2ccccc2C1=O` (configuration not stated), for which the TGI was greater than 100 µM in the assay with K-562 leukemia; 64.8 µM in the assay with RPMI-8226 leukemia; 43.6 µM in the assay with HL-60(TB) leukemia; 84.7 µM in the assay with CAKI-1 renal; 71.4 µM in the assay with OVCAR-3 ovarian; 45.3 µM in the assay with NCI-H23 lung. Besides, the TGI with HOP-92 NSCLC came to 66.5 µM.
For `C=C1C(=O)O[C@H]2[C@H]1CC/C(COC(=O)NCc1c[nH]c3ccc(Cl)cc13)=C\CC[C@@]1(C)O[C@@H]21`, the GI50 is 0.416 µM with K-562 leukemia; 0.625 µM in the assay on HT29 colon; 0.836 µM in the assay on RPMI-8226 leukemia; 0.615 µM with HCT-15 colon; 1.45 µM with CAKI-1 renal; 1.11 µM with OVCAR-3 ovarian. Also, the GI50 with NCI-H23 lung was 1.71 µM; in the assay on HOP-92 NSCLC it was 1.46 µM. The TGI in the assay with K-562 leukemia came out at 2.02 µM; in the assay on HT29 colon, 2.12 µM; with RPMI-8226 leukemia, 3.51 µM; with HCT-15 colon, 1.95 µM; with CAKI-1 renal it was 2.81 µM; with OVCAR-3 ovarian, 2.7 µM. Besides, the TGI with NCI-H23 lung turned out to be 3.39 µM; in the assay on HOP-92 NSCLC, 3.01 µM.
For the molecule `Cc1ccc(Cl)c(NC(=O)C(=O)C(C(=O)c2ccncc2)C2OC(=O)c3ccccc32)c1` (configuration not stated), the TGI in the assay with K-562 leukemia, with HT29 colon, in the assay with RPMI-8226 leukemia, in the assay with HCT-15 colon, with HL-60(TB) leukemia and with CAKI-1 renal was greater than 100 µM throughout. The TGI with NCI-H23 lung and in the assay on HOP-92 NSCLC was greater than 100 µM throughout.
Turning to `COc1ccc(-c2ccc(C3CC(c4ccc(Cl)cc4)=NN3)o2)c([N+](=O)[O-])c1` (configuration not stated), the GI50 in the assay with K-562 leukemia, in the assay on HT29 colon, in the assay with RPMI-8226 leukemia, in the assay on HCT-15 colon, in the assay on HL-60(TB) leukemia and with OVCAR-3 ovarian was greater than 100 µM each time. Further, the GI50 in the assay with NCI-H23 lung and in the assay on HOP-92 NSCLC was greater than 100 µM throughout. Moreover, the TGI in the assay on K-562 leukemia, in the assay on HT29 colon, with RPMI-8226 leukemia, in the assay with HCT-15 colon, in the assay on HL-60(TB) leukemia and with OVCAR-3 ovarian was greater than 100 µM throughout. In addition, the TGI in the assay on NCI-H23 lung and with HOP-92 NSCLC was greater than 100 µM throughout.

The values are drawn from PubChem BioAssay (NCI).
